Measurements as given in patent EP0072027A1, “Antiviral compounds” (THE WELLCOME FOUNDATION LIMITED, priority 1981, dated 1983).
≈ marks a conversion by molar mass, not a printed value.

Tests used:
[1] = tested on: Herpes simplex type 1; experiment: In vitro plaque reduction in VERO cell cultures (Example 16); assay type: cell-based; conditions: for IC50: Human alphaherpesvirus 1, Vero, VERO cells
Method: 60mm plastic cell culture dishes were seeded with a VERO cell suspension (6 ml of 2 x 10^5 cells/ml) in VERO cell growth medium comprising 5% foetal calf serum, 10% Eagles minimal essential medium, 0.11% sodium bicarbonate,0.25% Crystamycin.
(50,000 units/ml sodium benzyl penicillin B.P. and 50 mg/ml streptomcyin sulphate B.P.). The dishes were gently shaken to ensure the complete dispersion of the cells and then the cultures were incubated at 37°C in an atmosphere of 5% CO2/air overnight to attain confluency. The growth medium was then replaced with 2 ml of virus (Herpes simplex type 1) inoculum in phosphate buffered saline (PBS). The virus concentration was such as to induce the formation of 200-400 plaques/plate. A period of 1 hour was allowed for virus absorption at 37°C in 5% COZair, after which time the plates were drained and overlay medium (8 ml) was added at 42 °C. The overlay medium consisted of 0.6% agarose, 2% foetal calf serum, 10% Eagle's minimal essential medium, 0.11% sodium bicarbonate and 0.25% Crystamycin.
Doubling dilutions in micromolarity of active compound were prepared in the overlay and replicate cultures were fed with the maintenance medium overlay containing a range of concentrations of the compound. Untreated virus control cultures and uninfected cultures were also prepared. The overlay was allowed to solidify at room temperature before the cultures were returned to the incubator at 37°C in 5% CO2/air for 4 days. The cultures were then fixed with 10% formalin in PBS for 30 minutes to 1 hour; the overlay was removed and the cells were stained with 0.05% w/v methyl violet in 20% methanol. The resultant plaques were counted and expressed as a percentage of the plaque count of the untreated virus control cultures. These values were then plotted against the log10 of the compound concentration and the IC50 values representing the amount of the compound required to reduce the plaque count by 50% was read from the resulting dose-response line.

[2] = tested on: EHV-1 Pneumabort vaccine strain; experiment: Comparative in vivo activity against equine rhinopneumonitis virus in hamsters, medicated drinking water (Example 15); parameters: species or system Syrian hamsters; conditions: for Cumulative mortality (out of 15) on day: water conc. 0.075 mg/ml, average intake 6.6-6.8 mg/kg/day
Method: 50 male WO/CR Syrian hamsters were caged randomly in 10 groups of 5, with water and food (seed mix) ad lib. Hamsters were weighed on Days -3, 0, 4, and/or- at death/sacrifice. Water consumption was recorded over Days -3 to 0 to 4.
EHV-1 Pneumabort vaccine strain stored as a 10^-1 dilution, was further diluted 10^-1 in PBS for infection. On Day 0, hamsters in Groups 1-9 received 0.2 ml virus inoculum s/c in the left flank equivalent to about 2 x 10^5 PFU (plaque-forming units).
457U and 759U were dissolved in drinking water at 0.075 mg/ml. Assuming an average daily intake of […], this would result in a daily dose of around 10 mg/kg. Medicated water was provided from approximately 5 hours pre-infection for 96 hours, as below
The drug intake was calculated from the weight of the animals and the water consumption recorded over the period of the experiment.

[3] = Solubility in water; assay type: physicochemical
Source text: As mentioned above, the compounds of formula (I) have the important advantage of having a greater solubility in water than acyclovir. Thus, the compounds of formula (I) wherein X is an oxygen atom and R is a hydroxy group or amino group have solubilities of 0.4 -.0.5% and 2 - 3% w/w respectively compared with a figure of 0.14% w/w for acyclovir.

[4] = tested on: Equine rhinopneumonitis virus (EHV-1); experiment: In vivo activity against equine rhinopneumonitis virus in hamsters (Example 14), intraperitoneal and oral; parameters: species or system Syrian weanling hamsters; conditions: Equid alphaherpesvirus 1, ip, 120 h; intraperitoneally for 5 days commencing 5 hours pre-infection; read-out: dose rate generally necessary to prevent any virus-induced mortality
[5] = Experiment 1, plaque count reduced by 50%
[6] = Experiment 2, plaque count reduced by 50%
[7] = Experiment 3, plaque count reduced by 50%

| Compound | activity in vitro against Herpes simplex type I compared with acyclovir [1] | IC50 [1, 5] [nM] | IC50 [1, 6] [nM] | IC50 [1, 7] [nM] | IC50 ([1]; Mean of Experiments 1-3) [nM] | deaths from virus-induced hepatitis ([2]; in 15 treated hamsters, 14 deaths in 15 untreated controls) | prevention of EHV-1 induced mortality ([2]; orally in drinking water, approximately 7 mg/kg/day) | Cumulative mortality (out of 15) on day ([2]; day 2) | Cumulative mortality (out of 15) on day ([2]; day 3) | Cumulative mortality (out of 15) on day ([2]; day 4+) | solubility [3] [µg/mL] | minimal effective dose [4] [mg/kg/day] |
| --- | --- | --- | --- | --- | --- | --- | --- | --- | --- | --- | --- | --- |
| Nc1nc2c(ncn2COC(CO)CO)c(=O)[nH]1 [Example 759U, 9-[(2-hydroxy-1-hydroxymethylethoxy)methyl]guanine] | greater activity | 90 | 50 | 36 | 59 | no deaths | completely prevented | 0 | 0 | 0 |  |  |
| Nc1nc2c(ncn2COCCO)c(=O)[nH]1 [acyclovir, 9-(2-hydroxyethoxymethyl) guanine, reference compound] |  | 170 | 75 | 110 | 118 |  |  |  |  |  | 1400 (≈ 6.22 mM) | 100 |
